For 34 molecules, EC50 results are on record in patent publication US20150291598A1 (NOVARTIS AG, priority 2012, published 2015).

The subject of the test is P. falciparum (NF54 or 3D7 strain). Nature of the test: Assay for P. falciparum proliferation in infected human blood cells (SYBR Green). It is filed as cell-based, Plasmodium falciparum. The conditions noted are these: Plasmodium falciparum, 72 h, NF54 or 3D7 infected human erythrocytes, 72 hours, read-out: EC50 (nM), inhibitory efficacy in delaying P. falciparum proliferation in infected human blood cells. The procedure, abridged:
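NF54 or 3D7 parasites in O+ human erythrocytes at 2.5% hematocrit and 0.3% parasitemia final, exposed to compounds 72 h at 37 °C under 93% N2/4% CO2/3% O2.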

Read-outs that look alike come from different tables or passages of the source.

Regarding `COc1ccc(-c2cnc3cnc(C(=O)N(C)c4ccc(Cl)cc4)cn23)cc1` [Compound 219, N-(4-chlorophenyl)-3-(4-methoxyphenyl)-N-methylimidazo[1,2-a]pyrazine-6-carboxamide], the EC50 (Erythrocyte) turned out to be 63 nM.
As to `Cc1cnc(Cl)c(N(C)C(=O)c2cn3c(-c4ccc(C(F)(F)F)cc4)cnc3cn2)c1` [Compound 220, N-(2-chloro-5-methylpyridin-3-yl)-N-methyl-3-[4-(trifluoromethyl)phenyl]imidazo[1,2-a]pyrazine-6-carboxamide], under “Erythrocyte”, the EC50 worked out at 4040 nM.
The same measure, in the same setting: under `CN(C(=O)c1cn2c(-c3ccc(C(F)(F)F)cc3)cnc2cn1)c1ncccc1F` [Compound 221, N-(3-fluoropyridin-2-yl)-N-methyl-3-[4-(trifluoromethyl)phenyl]imidazo[1,2-a]pyrazine-6-carboxamide] stands 4970 nM.
The same measure, in the same setting: to `CN(C(=O)c1cn2c(-c3ccc(-c4ccn[nH]4)cc3)cnc2cn1)c1ccc(Cl)nc1` [Compound 224, N-(6-chloropyridin-3-yl)-N-methyl-3-[4-(1H-pyrazol-5-yl)phenyl]imidazo[1,2-a]pyrazine-6-carboxamide] belongs 149 nM.
For the molecule `COC(=O)Nc1ccc(-c2cnc3cnc(CN(C)c4ccc(C#N)cc4)cn23)cc1` [Compound 225, methyl N-[4-(6-{[(4-cyanophenyl)(methyl)amino]methyl}imidazo[1,2-a]pyrazin-3-yl)phenyl]carbamat], the EC50 (Erythrocyte) stood at 37 nM.
On the same count and under the same terms, under `CC(=O)Nc1ccc(-c2cnc3cnc(CN(C)c4ccc(C#N)cc4)cn23)cn1` [Compound 226, N-[5-(6-{[(4-cyanophenyl)(methyl)amino]methyl}imidazo[1,2-a]pyrazin-3-yl)pyridin-2-yl]acetamide] stands 37 nM; under `CN(C(=O)c1cn2c(-c3ccc(-c4nnc(N)o4)cc3)cnc2cn1)c1ccc(F)cc1` [Compound 227, 3-[4-(5-amino-1,3,4-oxadiazol-2-yl)phenyl]-N-(4-fluorophenyl)-N-methylimidazo[1,2-a]pyrazine-6-carboxamide], 40 nM.
On the same count and under the same terms, to `CC1(C)CCc2cc(F)ccc2N1C(=O)c1cn2c(-c3ccc(C(N)=O)cc3)cnc2cn1` [Compound 229, 4-{6-[(6-fluoro-2,2-dimethyl-1,2,3,4-tetrahydroquinolin-1-yl)carbonyl]imidazo[1,2-a]pyrazin-3-yl}benzamide] belongs 19 nM; to `CC1(C)CCc2cc(F)ccc2N1C(=O)c1cn2c(-c3ccc(C(F)(F)F)cc3)cnc2cn1` [Compound 230, 6-fluoro-2,2-dimethyl-1-({3-[4-(trifluoromethyl)phenyl]imidazo[1,2-a]pyrazin-6-yl}carbonyl)-1,2,3,4-tetrahydroquinoline], 21 nM.
On the same count and under the same terms, under `CN(Cc1cn2c(-c3ccc(C(F)(F)F)cc3)cnc2cn1)c1ccc(Cl)nc1` [Compound 231, 6-chloro-N-methyl-N-({3-[4-(trifluoromethyl)phenyl]imidazo[1,2-a]pyrazin-6-yl}methyl)pyridin-3-amine] stands 74 nM; under `CN(C(=O)c1cn2c(-c3ccc(C#N)cc3)cnc2cn1)c1ccc(S(C)(=O)=O)cc1` [Compound 232, 3-(4-cyanophenyl)-N-(4-methanesulfonylphenyl)-N-methylimidazo[1,2-a]pyrazine-6-carboxamide], 3990 nM.
Turning to `Cc1ccc(N(C)Cc2cn3c(-c4ccc(C(N)=O)cc4)cnc3cn2)nc1` [Compound 233, 4-(6-{[methyl(5-methylpyridin-2-yl)amino]methyl}imidazo[1,2-a]pyrazin-3-yl)benzamide], the EC50 (Erythrocyte) was determined as 138 nM.
Same read-out and setting: to `Fc1ccc2c(c1)CCCN2Cc1cn2c(-c3ccc(C(F)(F)F)cc3)cnc2cn1` [Compound 234, 6-fluoro-1-({3-[4-(trifluoromethyl)phenyl]imidazo[1,2-a]pyrazin-6-yl}methyl)-1,2,3,4-tetrahydroquinoline] belongs 148 nM.
The same measure, in the same setting: under `CN(C(=O)c1cn2c(-c3ccc(C(C)(F)F)cc3)cnc2cn1)c1ccc(Cl)nc1` [Compound 237, N-(6-chloropyridin-3-yl)-3-[4-(1,1-difluoroethyl)phenyl]-N-methylimidazo[1,2-a]pyrazine-6-carboxamide] stands 100 nM; under `COCCN(C(=O)c1cn2c(-c3ccc(C(F)(F)F)cc3)cnc2cn1)c1ccc(C#N)cc1` [Compound 238, N-(4-cyanophenyl)-N-(2-methoxyethyl)-3-[4-(trifluoromethyl)phenyl]imidazo[1,2-a]pyrazine-6-carboxamide], 152 nM; under `CN(C(=O)c1cn2c(-c3ccc(C(F)(F)F)cc3)cnc2cn1)c1ccc(C(F)(F)F)nc1` [Compound 239, N-methyl-3-[4-(trifluoromethyl)phenyl]-N-[6-(trifluoromethyl)pyridin-3-yl]imidazo[1,2-a]pyrazine-6-carboxamide], 6880 nM.
Same read-out and setting: to `CN(C(=O)c1cn2c(-c3ccc(-c4nnco4)cc3)cnc2cn1)c1ccc(C#N)cc1` [Compound 240, N-(4-cyanophenyl)-N-methyl-3-[4-(1,3,4-oxadiazol-2-yl)phenyl]imidazo[1,2-a]pyrazine-6-carboxamide] belongs 112 nM; to `Cc1ccc(N(C)Cc2cn3c(-c4ccc(C(F)F)cc4)cnc3cn2)nc1` [Compound 241, N-({3-[4-(difluoromethyl)phenyl]imidazo[1,2-a]pyrazin-6-yl}methyl)-N,5-dimethylpyridin-2-amine], 262 nM; to `CC(=O)Nc1ccc(-c2cnc3cnc(CN(C)c4ccc(C)cn4)cn23)cn1` [Compound 242, N-[5-(6-{[methyl(5-methylpyridin-2-yl)amino]methyl}imidazo[1,2-a]pyrazin-3-yl)pyridin-2-yl]acetamide], 215 nM.
On to `CN(C(=O)c1cn2c(-c3cnc4[nH]ccc4c3)cnc2cn1)c1ccc(C#N)cc1` [Compound 243, N-(4-cyanophenyl)-N-methyl-3-{1H-pyrrolo[2,3-b]pyridin-5-yl}imidazo[1,2-a]pyrazine-6-carboxamide], for which the EC50 (Erythrocyte) stood at 98 nM.
On the same count and under the same terms, under `CNC(=O)c1ccc(-c2cnc3cnc(C(=O)N(C)c4ccc(F)cc4)cn23)cc1` [Compound 244, N-(4-fluorophenyl)-N-methyl-3-[4-(methylcarbamoyl)phenyl]imidazo[1,2-a]pyrazine-6-carboxamide] stands 290 nM.
On the same count and under the same terms, to `COC(=O)Nc1ccc(-c2cnc3cnc(C(=O)N(C)c4ccc(Cl)nc4)cn23)cc1` [Compound 245, methyl N-(4-{6-[(6-chloropyridin-3-yl)(methyl)carbamoyl]imidazo[1,2-a]pyrazin-3-yl}phenyl)carbamate] belongs 226 nM.
On the same count and under the same terms, under `CNc1ccc(-c2cnc3cnc(C(=O)N(C)c4ccc(C#N)cc4)cn23)cn1` [Compound 246, N-(4-cyanophenyl)-N-methyl-3-[6-(methylamino)pyridin-3-yl]imidazo[1,2-a]pyrazine-6-carboxamide] stands 310 nM; under `CN(C(=O)c1cn2c(-c3ccc(NC(=O)CN)cc3)cnc2cn1)c1ccc(C#N)cc1` [Compound 247, 3-[4-(2-aminoacetamido)phenyl]-N-(4-cyanophenyl)-N-methylimidazo[1,2-a]pyrazine-6-carboxamide], 611 nM; under `CN(C(=O)c1cn2c(-c3ccc(-c4nnc(N)o4)cc3)cnc2cn1)c1ccc(C#N)cc1` [Compound 248, 3-[4-(5-amino-1,3,4-oxadiazol-2-yl)phenyl]-N-(4-cyanophenyl)-N-methylimidazo[1,2-a]pyrazine-6-carboxamide], 87 nM.
For `CN(C(=O)c1cn2c(-c3ccc(C(F)(F)F)cc3)cnc2cn1)c1ccncc1` [Compound 249, N-methyl-N-(pyridin-4-yl)-3-[4-(trifluoromethyl)phenyl]imidazo[1,2-a]pyrazine-6-carboxamide], the EC50 (Erythrocyte) amounted to 635 nM.
For the molecule `COc1ncc(C)cc1N(C)C(=O)c1cn2c(-c3ccc(C(F)(F)F)cc3)cnc2cn1` [Compound 250, N-(2-methoxy-5-methylpyridin-3-yl)-N-methyl-3-[4-(trifluoromethyl)phenyl]imidazo[1,2-a]pyrazine-6-carboxamide], under “Erythrocyte”, the EC50 is 302 nM.
The same measure, in the same setting: to `Cc1cncc(N(C)C(=O)c2cn3c(-c4ccc(C(F)(F)F)cc4)cnc3cn2)c1` [Compound 251, N-methyl-N-(5-methylpyridin-3-yl)-3-[4-(trifluoromethyl)phenyl]imidazo[1,2-a]pyrazine-6-carboxamide] belongs 5520 nM.
Turning to `CN(C(=O)c1cn2c(-c3cc4cc(C#N)ccc4[nH]3)cnc2cn1)c1ccc(C#N)cc1` [Compound 252], for the setting “3D7|NF54, Erythrocyte, in Homo sapiens”, the EC50 is greater than 8280 nM.
Turning to `CCOC(=O)c1cnc2cnc(C(=O)N(C)c3ccc(Cl)nc3)cn12` [Compound 253, ethyl 6-[(6-chloropyridin-3-yl)(methyl)carbamoyl]imidazo[1,2-a]pyrazine-3-carboxylate], under “Erythrocyte”, the EC50 was 2460 nM.
Same read-out and setting: under `CCOC(=O)Nc1ccc(-c2cnc3cnc(C(=O)N(C)c4ccc(C#N)cc4)cn23)cc1` [Compound 254, ethyl N-(4-{6-[(4-cyanophenyl)(methyl)carbamoyl]imidazo[1,2-a]pyrazin-3-yl}phenyl)carbamate] stands 67 nM; under `CN(C(=O)c1cn2c(-c3ccc(NC(=O)C4CCC[C@H]4N)cc3)cnc2cn1)c1ccc(C#N)cc1` (stereo partly drawn) [Compound 255, 3-(4-{[(1S,2R)-2-aminocyclopentane]amido}phenyl)-N-(4-cyanophenyl)-N-methylimidazo[1,2-a]pyrazine-6-carboxamide], 155 nM.
The same measure, in the same setting: to `CC(C)[C@@H](N)CC(=O)Nc1ccc(-c2cnc3cnc(C(=O)N(C)c4ccc(C#N)cc4)cn23)cc1` [Compound 256, 3-{4-[(3S)-3-amino-4-methylpentanamido]phenyl}-N-(4-cyanophenyl)-N-methylimidazo[1,2-a]pyrazine-6-carboxamide] belongs 240 nM; to `CN(C(=O)c1cn2c(-c3ccc(-c4ccn[nH]4)cc3)cnc2cn1)c1ccc(F)cc1` [Compound 257, N-(4-fluorophenyl)-N-methyl-3-[4-(1H-pyrazol-5-yl)phenyl]imidazo[1,2-a]pyrazine-6-carboxamide], 92 nM.
